In assay [1] the target is Non-receptor tyrosine-protein kinase TYK2 (Homo sapiens, UniProt P29597). Kind of assay: TYK2 (TYK2/JAK2 PSTAT4 T-BLAST) Alpha Screen Assay. As for the experimental part: IL-12 is known to transduce its signal through IL-12 receptor via Jak2 and/or Tyk2. For that reason, the activity against Tyk2/Jak2 was measured by determining the inhibition of IL-12 induced phosphorylation of STAT4 in T-blast cells. […] See, e.g., Sohn et al., J. Immunology (2013) 2205-2216.

Assay [2] concerns the target Tyrosine-protein kinase JAK1 (Homo sapiens, UniProt P23458). Kind of assay: JAK1 (PSTAT3 TF1) Alpha Screen Assay. As for the experimental part:
IL-6 is known to transduce its signal through IL-6 receptor via Jak1. Activity against Jak was therefore measured by determining inhibition of IL-6 induced phosphorylation of STAT3 in TF1 cells. From these tests, the EC50 (effective concentration for 50% maximal response) values were determined in 1 μM for the test compounds.

Assay [3] deals with Tyrosine-protein kinase JAK2 (Homo sapiens, UniProt O60674). Briefly: JAK2 (PSTAT5 UT7) Alpha Screen Assay. As for the experimental part: Erythropoietin (EPO) is known to transduce its signal through EPO receptor via Jak2. Activity against Jak2 was therefore measured by determining inhibition of EPO induced phosphorylation of […] in UT7 cells. From these tests, the EC50 (effective concentration for 50% maximal response) values were determined in 1 μM for the test compounds.

The structures appear in SMILES notation.

Non-receptor tyrosine-protein kinase TYK2, sequence (P29597 whole entry): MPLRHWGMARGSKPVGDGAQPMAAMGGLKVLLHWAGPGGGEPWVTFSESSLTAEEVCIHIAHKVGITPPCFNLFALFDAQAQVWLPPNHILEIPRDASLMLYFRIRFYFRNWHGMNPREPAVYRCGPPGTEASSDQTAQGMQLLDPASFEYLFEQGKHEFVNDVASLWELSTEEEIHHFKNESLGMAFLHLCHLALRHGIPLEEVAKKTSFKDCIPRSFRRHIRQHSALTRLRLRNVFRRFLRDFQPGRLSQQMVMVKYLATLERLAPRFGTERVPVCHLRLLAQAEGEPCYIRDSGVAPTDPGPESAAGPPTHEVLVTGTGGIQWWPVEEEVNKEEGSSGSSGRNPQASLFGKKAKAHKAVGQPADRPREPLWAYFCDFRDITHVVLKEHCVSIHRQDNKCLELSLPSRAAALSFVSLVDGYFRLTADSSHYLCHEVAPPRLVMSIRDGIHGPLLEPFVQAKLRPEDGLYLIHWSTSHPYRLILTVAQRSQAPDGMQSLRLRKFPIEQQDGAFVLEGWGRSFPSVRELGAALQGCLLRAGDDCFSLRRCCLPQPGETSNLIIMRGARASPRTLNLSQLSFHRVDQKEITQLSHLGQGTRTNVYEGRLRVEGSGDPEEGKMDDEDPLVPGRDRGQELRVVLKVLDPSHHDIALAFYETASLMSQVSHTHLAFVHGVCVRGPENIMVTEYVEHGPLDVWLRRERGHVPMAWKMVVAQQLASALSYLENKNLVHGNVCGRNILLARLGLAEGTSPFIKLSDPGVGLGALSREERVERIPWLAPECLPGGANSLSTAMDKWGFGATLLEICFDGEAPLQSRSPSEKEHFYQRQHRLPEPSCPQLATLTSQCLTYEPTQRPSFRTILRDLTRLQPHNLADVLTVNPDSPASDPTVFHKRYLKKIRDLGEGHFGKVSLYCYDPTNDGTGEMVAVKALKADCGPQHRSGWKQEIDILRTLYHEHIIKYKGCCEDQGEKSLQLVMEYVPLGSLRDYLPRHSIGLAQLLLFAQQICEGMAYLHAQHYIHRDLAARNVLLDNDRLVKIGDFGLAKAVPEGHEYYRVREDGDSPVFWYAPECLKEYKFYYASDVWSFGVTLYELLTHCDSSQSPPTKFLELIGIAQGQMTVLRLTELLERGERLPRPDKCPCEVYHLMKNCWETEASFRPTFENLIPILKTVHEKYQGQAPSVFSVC
Tyrosine-protein kinase JAK1, sequence (P23458 whole entry): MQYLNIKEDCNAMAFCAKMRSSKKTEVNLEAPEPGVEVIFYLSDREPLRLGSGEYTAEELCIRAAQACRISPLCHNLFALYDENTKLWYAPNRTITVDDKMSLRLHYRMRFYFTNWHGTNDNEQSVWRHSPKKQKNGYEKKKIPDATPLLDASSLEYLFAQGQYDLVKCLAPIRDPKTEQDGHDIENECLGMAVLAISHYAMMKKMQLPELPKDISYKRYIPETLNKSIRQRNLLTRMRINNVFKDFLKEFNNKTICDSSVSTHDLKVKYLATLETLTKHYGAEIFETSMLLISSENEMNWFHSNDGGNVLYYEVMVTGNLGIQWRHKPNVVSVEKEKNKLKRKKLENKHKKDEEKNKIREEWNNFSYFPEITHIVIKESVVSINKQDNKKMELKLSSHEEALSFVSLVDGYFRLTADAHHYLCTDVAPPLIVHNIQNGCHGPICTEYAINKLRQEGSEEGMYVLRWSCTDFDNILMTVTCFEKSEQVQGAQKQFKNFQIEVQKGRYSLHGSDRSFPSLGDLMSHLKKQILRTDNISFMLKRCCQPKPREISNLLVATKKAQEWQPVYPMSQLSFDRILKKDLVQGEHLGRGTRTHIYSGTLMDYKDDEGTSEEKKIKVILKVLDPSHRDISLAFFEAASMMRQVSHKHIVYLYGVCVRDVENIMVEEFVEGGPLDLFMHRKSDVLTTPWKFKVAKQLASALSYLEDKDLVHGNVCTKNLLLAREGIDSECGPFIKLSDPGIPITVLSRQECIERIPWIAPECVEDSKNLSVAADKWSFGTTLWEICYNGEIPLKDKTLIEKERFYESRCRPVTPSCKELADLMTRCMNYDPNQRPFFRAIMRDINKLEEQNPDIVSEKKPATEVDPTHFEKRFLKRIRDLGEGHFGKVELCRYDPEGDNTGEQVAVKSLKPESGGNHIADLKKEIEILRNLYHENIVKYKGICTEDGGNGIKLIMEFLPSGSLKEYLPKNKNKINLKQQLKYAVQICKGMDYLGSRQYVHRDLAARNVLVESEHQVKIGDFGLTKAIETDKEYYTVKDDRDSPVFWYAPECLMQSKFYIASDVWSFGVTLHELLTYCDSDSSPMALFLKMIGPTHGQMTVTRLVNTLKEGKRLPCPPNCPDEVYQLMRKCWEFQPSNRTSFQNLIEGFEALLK
Tyrosine-protein kinase JAK2, sequence (O60674 whole entry): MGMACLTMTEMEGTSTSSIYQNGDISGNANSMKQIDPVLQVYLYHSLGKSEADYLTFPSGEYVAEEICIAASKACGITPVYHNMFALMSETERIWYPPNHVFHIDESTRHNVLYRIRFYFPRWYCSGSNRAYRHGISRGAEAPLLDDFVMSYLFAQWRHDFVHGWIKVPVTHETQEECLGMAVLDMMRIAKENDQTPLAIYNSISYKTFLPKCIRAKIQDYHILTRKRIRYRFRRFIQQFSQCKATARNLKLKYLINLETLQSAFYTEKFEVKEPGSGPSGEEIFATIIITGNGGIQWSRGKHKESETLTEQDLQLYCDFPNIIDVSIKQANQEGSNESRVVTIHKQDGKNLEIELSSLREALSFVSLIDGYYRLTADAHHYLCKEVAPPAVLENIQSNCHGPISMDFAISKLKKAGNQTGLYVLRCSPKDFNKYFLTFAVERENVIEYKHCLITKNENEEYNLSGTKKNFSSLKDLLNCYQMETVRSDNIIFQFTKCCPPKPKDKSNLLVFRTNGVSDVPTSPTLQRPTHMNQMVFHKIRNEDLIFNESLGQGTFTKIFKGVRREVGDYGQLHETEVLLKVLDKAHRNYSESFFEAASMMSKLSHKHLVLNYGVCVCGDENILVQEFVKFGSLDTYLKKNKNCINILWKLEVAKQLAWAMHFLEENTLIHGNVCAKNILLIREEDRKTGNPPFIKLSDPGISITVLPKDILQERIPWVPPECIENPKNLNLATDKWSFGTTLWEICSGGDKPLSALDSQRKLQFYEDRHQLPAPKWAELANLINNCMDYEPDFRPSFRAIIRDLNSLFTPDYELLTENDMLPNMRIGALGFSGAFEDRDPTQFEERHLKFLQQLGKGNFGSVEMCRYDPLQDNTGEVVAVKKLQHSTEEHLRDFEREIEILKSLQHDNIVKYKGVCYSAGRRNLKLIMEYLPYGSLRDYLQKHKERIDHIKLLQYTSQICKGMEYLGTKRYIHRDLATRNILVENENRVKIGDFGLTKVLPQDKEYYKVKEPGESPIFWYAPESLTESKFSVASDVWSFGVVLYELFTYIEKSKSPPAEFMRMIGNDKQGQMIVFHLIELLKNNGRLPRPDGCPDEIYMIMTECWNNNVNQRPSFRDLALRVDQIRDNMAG

Consider `COCc1cc(-c2cn(C3COC3)c3cnc(NC(C)=O)cc23)nc([C@]2(OC)CCOC2)c1` [US20190276450, Example 4], for which the concentration for a half-maximal effect (EC50) – broadly, the concentration giving half of the maximal effect – in assay [1] is 0.137 µM; in assay [2], more than 100 µM; in assay [3] it was more than 25 µM.
For the compound `CO[C@@]1(c2cc(C)cc(-c3cn(C)c4cnc(NC(C)=O)cc34)n2)CCOC1` [US20190276450, Example 2.2], the EC50 in assay [1] was 0.198 µM; in assay [2], 41 µM; in assay [3] it was more than 25 µM.
Consider `CO[C@@]1(c2cccc(-c3cn(C)c4cnc(NC(N)=O)cc34)n2)CCOC1` [US20190276450, Example 1], for which the 50% effective concentration (EC50) was 0.059 µM in assay [1], 5.45 µM in assay [2] and more than 25 µM in assay [3].
Taken in the same sequence, the figures for `CO[C@@]1(c2cc(OC[C@@H](C)O)cc(-c3cn(C)c4cnc(NC(C)=O)cc34)n2)CCOC1` [US20190276450, Example 14.6] were 0.087 µM, 49 µM and more than 25 µM.
Taken in the same sequence, the figures for `CO[C@@]1(c2cc(C#N)cc(-c3cn(C)c4cnc(NC(N)=O)cc34)n2)CCOC1` [US20190276450, Example 12.3] were 0.094 µM, 13 µM and more than 25 µM.
The corresponding values for `COCCOc1cc(-c2cn(C)c3cnc(NC(C)=O)cc23)nc([C@]2(OC)CCOC2)c1` [US20190276450, Example 25] are 0.025 µM, 49 µM and more than 25 µM.
For the compound `COc1cc(-c2cn(C)c3cnc(NC(N)=O)cc23)nc([C@]2(OC)CCOC2)c1` [US20190276450, Example 12.6], the figures for the EC50 in assay [1], in assay [2] and in assay [3] were 0.039 µM, 15 µM and more than 25 µM, respectively.

Values taken from BindingDB's records for patent US20190276450 (Abbvie, 2019).
